Data taken from patent US20070197525A1, “Novel tetracyclic tetrahydrofuran derivatives” (priority 2004, published 2007).

Tests used:
[1] = molecular target: T1, human cloned 5-HT2A receptor (Homo sapiens, UniProt P28223); test: In vitro binding affinity for 5-HT2A receptor (radioligand binding); conditions: human cloned 5-HT2A receptor expressed in L929 cells, [125I]R91150 radioligand; read-out: 5-HT2A (pIC50) (converted)
T1 construct: expressed in transfected cells; host or cells: L929 cells
Method: (§1) The interaction of the compounds of Formula (I) with 5-HT2A and 5-HT2C receptors was assessed in in vitro radioligand binding experiments. In general, a low concentration of a radioligand with a high binding affinity for the receptor is incubated with a sample of a tissue preparation enriched in a particular receptor (1 to 5 mg tissue) in a buffered medium (0.2 to 5 ml). During the incubation, the radioligands bind to the receptor. When equilibrium of binding is reached, the receptor bound radioactivity is separated from the non-bound radioactivity, and the receptor bound activity is counted. The interaction of the test compounds with the receptors is assessed in competition binding experiments. Various concentrations of the test compound are added to the incubation mixture containing the tissue preparation and the radioligand. Binding of the radioligand will be inhibited by the test compound in proportion to its binding affinity and its concentration. The affinities of the compounds for the 5-HT2 receptors were measured by means of radioligand binding studies conducted with: (a) human cloned 5-HT2A receptor, expressed in L929 cells using [^125I]R91150 as radioligand and (b) human cloned 5-HT2C receptor, expressed in CHO cells using [^3H]mesulergine as radioligand.

[2] = molecular target: T2, norepinephrine transporter (NET) (Rattus norvegicus, UniProt Q63380); test: In vitro assay for NET inhibition (radioligand binding, rat brain cortex); conditions: rat brain cortex membranes, [3H]Nixosetine radioligand; read-out: NET-inhibition (pIC50) (converted)
T2 construct: Cortex from rat brain was collected and homogenised; from tissue; host or cells: rat brain cortex membranes
T2 sequence (Q63380 1-617): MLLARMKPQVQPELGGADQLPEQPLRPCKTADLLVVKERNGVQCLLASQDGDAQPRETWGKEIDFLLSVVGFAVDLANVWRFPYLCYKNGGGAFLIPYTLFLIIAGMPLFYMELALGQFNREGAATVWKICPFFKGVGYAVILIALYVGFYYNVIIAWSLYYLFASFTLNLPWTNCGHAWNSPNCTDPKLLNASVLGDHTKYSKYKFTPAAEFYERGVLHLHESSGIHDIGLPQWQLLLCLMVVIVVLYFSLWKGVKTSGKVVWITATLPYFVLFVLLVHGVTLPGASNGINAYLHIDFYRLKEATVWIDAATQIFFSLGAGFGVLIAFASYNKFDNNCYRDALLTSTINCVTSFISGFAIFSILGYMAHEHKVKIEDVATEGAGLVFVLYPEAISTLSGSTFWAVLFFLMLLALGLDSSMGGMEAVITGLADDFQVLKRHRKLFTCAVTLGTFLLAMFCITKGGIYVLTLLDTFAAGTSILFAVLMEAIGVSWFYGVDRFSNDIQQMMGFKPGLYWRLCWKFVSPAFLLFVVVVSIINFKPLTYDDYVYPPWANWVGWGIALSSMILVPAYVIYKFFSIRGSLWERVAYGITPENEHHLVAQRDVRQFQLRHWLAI
Method: Cortex from rat brain was collected and homogenised using an Ultra-Turrax T25 and a Dual homogeniser in ice-cold homogenising buffer containing Tris, NaCl and KCl (50 mM, 120 mM and 5 mM, respectively, pH 7.4) prior to dilution to an appropriate protein concentration optimised for specific and non-specific binding. […] Membrane-bound activity was detected by filtration through a Packard Filtermate harvester onto GF/B Unifilterplates, washed with ice-cold Tris-HCl buffer, containing NaCl and KCl (50 mM, 120 mM and 4 mM; pH 7.4; 6×0.5 ml). Filters were allowed to dry for 24 h before adding scintillation fluid. Scintillation fluid was allowed to saturate filters for 24 h before counting in a Topcount scintillation counter. Percentage specific bound and competition binding curves were calculated using S-Plus software (Insightful).

[3] = molecular target: T3, human dopamine D2L receptor (Homo sapiens, UniProt P14416); test: In vitro assay for D2 receptor binding; conditions: for IC50: membranes of human D2L-transfected CHO cells, [3H]Spiperone radioligand, read-out: D2 (pIC50) (converted); for D2/NET: ratio of D2 pIC50 to NET-inhibition pIC50
T3 construct: expressed in transfected cells; host or cells: CHO cells (frozen membranes)
T3 sequence (P14416 whole entry): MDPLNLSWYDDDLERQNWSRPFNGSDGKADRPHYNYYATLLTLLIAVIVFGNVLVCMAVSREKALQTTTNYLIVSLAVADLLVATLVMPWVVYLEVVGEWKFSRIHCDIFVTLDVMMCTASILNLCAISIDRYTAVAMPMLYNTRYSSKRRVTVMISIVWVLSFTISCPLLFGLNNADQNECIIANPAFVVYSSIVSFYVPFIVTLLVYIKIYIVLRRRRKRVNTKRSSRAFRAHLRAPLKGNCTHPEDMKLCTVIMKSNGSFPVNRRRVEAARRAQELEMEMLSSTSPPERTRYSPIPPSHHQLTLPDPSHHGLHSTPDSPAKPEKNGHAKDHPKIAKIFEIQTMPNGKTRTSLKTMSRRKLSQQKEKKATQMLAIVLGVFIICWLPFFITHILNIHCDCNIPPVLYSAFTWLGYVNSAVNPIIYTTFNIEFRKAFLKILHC
Method: Frozen membranes of human dopamine D2L receptor-transfected CHO cells were thawed, briefly homogenised using an Ultra-Turrax T25 homogeniser and diluted in Tris-HCl assay buffer containing NaCl, CaCl2, MgCl2, KCl (50, 120, 2, 1, and 5 mM respectively, adjusted to pH 7.7 with HCl) to an appropriate protein concentration optimised for specific and non-specific binding. Radioligand [^3H]Spiperone (NEN, specific activity ˜70 Ci/mmol) was diluted in assay buffer at a concentration of 2 nmol/L. Prepared radioligand (50 μl), along with 50 μl of either the 10% DMSO control, Butaclamol (10^−6 mol/l final concentration), or compound of interest, was then incubated (30 min, 37° C.) with 400 μl of the prepared membrane solution. Membrane-bound activity was filtered through a Packard Filtermate harvester onto GF/B Unifilterplates and washed with ice-cold Tris-HCl buffer (50 mM; pH 7.7; 6×0.5 ml). Filters were allowed to dry before adding scintillation fluid and counting in a Topcount scintillation counter. Percentage specific bound and competition binding curves were calculated using S-Plus software (Insightful).

[4] = molecular target: T4, human cloned 5-HT2C receptor (Homo sapiens, UniProt P28335); test: In vitro binding affinity for 5-HT2C receptor (radioligand binding); conditions: human cloned 5-HT2C receptor expressed in CHO cells, [3H]mesulergine radioligand; read-out: 5-HT2C (pIC50) (converted)
T4 construct: expressed in transfected cells; host or cells: CHO cells
T4 sequence (P28335 33-458): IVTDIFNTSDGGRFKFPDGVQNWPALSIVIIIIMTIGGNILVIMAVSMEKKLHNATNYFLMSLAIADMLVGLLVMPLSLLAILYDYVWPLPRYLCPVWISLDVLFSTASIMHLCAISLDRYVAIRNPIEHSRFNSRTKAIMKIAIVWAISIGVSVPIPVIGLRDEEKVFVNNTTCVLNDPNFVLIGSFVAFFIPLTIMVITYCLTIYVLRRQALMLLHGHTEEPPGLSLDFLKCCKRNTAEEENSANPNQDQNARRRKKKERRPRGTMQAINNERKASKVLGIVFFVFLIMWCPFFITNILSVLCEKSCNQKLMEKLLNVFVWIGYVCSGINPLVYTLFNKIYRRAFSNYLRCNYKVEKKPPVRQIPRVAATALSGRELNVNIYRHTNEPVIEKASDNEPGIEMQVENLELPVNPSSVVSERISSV
Method: as §1

[5] = Metabolic stability assay using human liver microsomes; type: in vitro ADME; conditions: 5.0 μM test compound, 15 min incubation, LC-MS
Method: Compounds according to the invention were tested for metabolic stability in the following assay using human liver microsomes in comparison with prior art compound A, referred to above.
Sub-cellular tissue preparations are made by centrifugal separation after mechanical homogenization of tissue. Tissue is rinsed in ice cold 0.1 M Tris-HCl (pH 7.4) buffer to wash excess blood. Tissue is then blotted dry, weighed and chopped coarsely using surgical scissors. The tissue pieces are homogenized in 3 volumes of ice cold 0.1 M phosphate buffer (pH 7.4) for 7×10 sec. The vessel is kept in/on ice during the homogenization process. Tissue homogenates are centrifuged at 9000×g for 20 minutes at 4° C. The resulting supernatant can be stored at −80° C. and is designated ‘S9’.
The S9-fraction may be centrifuged at 100.000×g for 60 minutes (4° C.). The resulting supernatant is aspirated, aliquoted and designated ‘cytosol’. The pellet is re-suspended in 0.1 M phosphate buffer (pH 7.4) in a final volume of 1 mL per 0.5 g original tissue weight and designated ‘microsomes’.
The incubation is carried out in the following system:
• The reaction is started by the addition of 0.8 mM NADP and incubated for 15 min. • Total assay volume is 250 microliters. • The reaction is stopped by the addition of 2 volumes of DMSO (or acetonitrile). • The samples are centrifuged (10 min, 900×g) and supernatant stored at room temperature (when stopped with DMSO; no longer than 24 h) or −20° C. (when stopped with acetonitrile; no longer than 24 h) before analysis. • The supernatant material is then analysed by LC-MS to determine the extent of metabolism of the test compound in the microsomes

T1 sequence (P28223 whole entry): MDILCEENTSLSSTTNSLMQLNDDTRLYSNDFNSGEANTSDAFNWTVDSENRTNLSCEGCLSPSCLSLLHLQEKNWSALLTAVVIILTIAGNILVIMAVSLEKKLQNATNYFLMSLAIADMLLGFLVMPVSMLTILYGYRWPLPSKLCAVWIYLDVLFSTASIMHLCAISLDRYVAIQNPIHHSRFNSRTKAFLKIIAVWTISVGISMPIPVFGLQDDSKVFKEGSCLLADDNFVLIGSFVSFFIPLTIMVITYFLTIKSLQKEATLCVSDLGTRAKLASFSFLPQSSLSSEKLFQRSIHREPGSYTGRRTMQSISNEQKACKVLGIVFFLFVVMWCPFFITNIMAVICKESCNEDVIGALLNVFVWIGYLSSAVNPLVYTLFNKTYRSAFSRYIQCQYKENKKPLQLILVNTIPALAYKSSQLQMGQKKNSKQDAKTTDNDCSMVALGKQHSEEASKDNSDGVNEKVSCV

SMILES | IC50 [1] | IC50 [2] | IC50 [3] | D2/NET [3] | IC50 [4] | % metabolised [5]
CCNC[C@H]1C[C@@H]2c3ccccc3[C@@H](O)c3ccc(F)cc3[C@H]2O1 (relative stereo) [Compound 106] | 20 nM | 3.98 nM | 1260 nM | 0.67 | 5.01 nM | –
CNC[C@H]1C[C@@H]2c3ccccc3[C@H](O)c3ccc(F)cc3[C@H]2O1 [Compound 34] | 31.6 nM | 20 nM | > 1000 nM | <0.77 | 5.01 nM | –
CN(C)C[C@H]1C[C@@H]2c3ccccc3[C@](C)(O)c3ccc(F)cc3[C@H]2O1 [Compound 41] | 31.6 nM | 126 nM | > 1000 nM | <0.87 | 50.1 nM | 2.25%
CNC[C@H]1C[C@@H]2c3ccccc3[C@@H](OC(C)C)c3ccc(F)cc3[C@H]2O1 [Compound 63] | 316 nM | 3980 nM | > 10000 nM | <0.92 | 100 nM | –
OC1c2ccccc2C2CC(CNCc3ccccc3)OC2c2cc(F)ccc21 (centres unmarked) [Compound 109] | – | 3980 nM | > 10000 nM | <0.92 | 12.6 nM | –
CCNC[C@H]1C[C@@H]2c3ccccc3[C@@H](OC)c3ccc(F)cc3[C@H]2O1 [Compound 110] | 1260 nM | 10 nM | > 10000 nM | <0.62 | 398 nM | –
COC1c2ccccc2C2CC(CNCc3ccccc3)OC2c2cc(F)ccc21 (centres unmarked) [Compound 111] | – | 2000 nM | 3160 nM | 0.96 | 79.4 nM | –

Now from value to molecule:

IC50 [1] | IC50 [2] | IC50 [3] | D2/NET [3] | IC50 [4] | % metabolised [5] | SMILES
158 nM | 20 nM | > 10000 nM | <0.65 | 25.1 nM | – | C=C1c2ccccc2C2CC(CN(C)C)OC2c2ccccc21 (single isomer, unassigned) [Compound 24]
2 nM | 39.8 nM | 63.1 nM | 0.96 | 2 nM | – | CNCC1CC2c3ccccc3C(C)c3ccc(F)cc3C2O1 (single isomer, unassigned) [Compound 73]
12.6 nM | 5.01 nM | 631 nM | 0.74 | 3.98 nM | 9% | CNCC1CC2c3ccccc3C(C)c3ccc(F)cc3C2O1 (single isomer, unassigned) [Compound 74]
63.1 nM | 63.1 nM | > 1000 nM | <0.83 | 79.4 nM | – | CN(C)C[C@H]1C[C@@H]2c3ccccc3C(=O)c3ccc(F)cc3[C@H]2O1 [Compound 12]
12.6 nM | 12.6 nM | 200 nM | 0.85 | 3.98 nM | – | C=C1c2ccccc2[C@H]2C[C@H](CN(C)C)O[C@@H]2c2ccccc21 [Compound 25]
– | – | – | – | – | 2.6% | C=C1c2ccccc2[C@H]2C[C@H](CN(C)C)O[C@@H]2c2cc(F)ccc21 [Compound 26]
25.1 nM | 31.6 nM | 316 nM | 0.86 | 3.98 nM | 11.35% | C[C@@H]1c2ccccc2[C@H]2C[C@H](CN(C)C)O[C@@H]2c2cc(F)ccc21 [Compound 66]
12.6 nM | 200 nM | 7940 nM | 0.60 | 2.51 nM | – | NC[C@H]1C[C@@H]2c3ccccc3[C@@H](O)c3ccc(F)cc3[C@H]2O1 [Compound 104]
20 nM | 158 nM | 1580 nM | 0.86 | 6.31 nM | – | CCNC[C@H]1C[C@@H]2c3ccccc3[C@H](O)c3ccc(F)cc3[C@H]2O1 [Compound 107]
